# Assay results from patent US7772230B2, “Chroman compound, processes for its preparation, and its pharmaceutical use” (China Pharmaceutical University, priority 2006, dated 2010).
# How the values were obtained:
# [1] = molecular target: T1, rapidly delayed rectifier potassium channel current (IKr) (Cavia porcellus, UniProt O08703); test: whole cell patch clamp on isolated Guinea pig myocardial cells, IKr; type: cell-based; settings: Guinea pig ventricular myocytes, current recorded 10 min after administration, 25-30° C.
# T1 construct: the Guinea pig myocardial cells are separated with enzymolysis; endogenous in cells; host or cells: freshly isolated guinea pig ventricular myocytes
# T1 sequence (O08703 1-1294): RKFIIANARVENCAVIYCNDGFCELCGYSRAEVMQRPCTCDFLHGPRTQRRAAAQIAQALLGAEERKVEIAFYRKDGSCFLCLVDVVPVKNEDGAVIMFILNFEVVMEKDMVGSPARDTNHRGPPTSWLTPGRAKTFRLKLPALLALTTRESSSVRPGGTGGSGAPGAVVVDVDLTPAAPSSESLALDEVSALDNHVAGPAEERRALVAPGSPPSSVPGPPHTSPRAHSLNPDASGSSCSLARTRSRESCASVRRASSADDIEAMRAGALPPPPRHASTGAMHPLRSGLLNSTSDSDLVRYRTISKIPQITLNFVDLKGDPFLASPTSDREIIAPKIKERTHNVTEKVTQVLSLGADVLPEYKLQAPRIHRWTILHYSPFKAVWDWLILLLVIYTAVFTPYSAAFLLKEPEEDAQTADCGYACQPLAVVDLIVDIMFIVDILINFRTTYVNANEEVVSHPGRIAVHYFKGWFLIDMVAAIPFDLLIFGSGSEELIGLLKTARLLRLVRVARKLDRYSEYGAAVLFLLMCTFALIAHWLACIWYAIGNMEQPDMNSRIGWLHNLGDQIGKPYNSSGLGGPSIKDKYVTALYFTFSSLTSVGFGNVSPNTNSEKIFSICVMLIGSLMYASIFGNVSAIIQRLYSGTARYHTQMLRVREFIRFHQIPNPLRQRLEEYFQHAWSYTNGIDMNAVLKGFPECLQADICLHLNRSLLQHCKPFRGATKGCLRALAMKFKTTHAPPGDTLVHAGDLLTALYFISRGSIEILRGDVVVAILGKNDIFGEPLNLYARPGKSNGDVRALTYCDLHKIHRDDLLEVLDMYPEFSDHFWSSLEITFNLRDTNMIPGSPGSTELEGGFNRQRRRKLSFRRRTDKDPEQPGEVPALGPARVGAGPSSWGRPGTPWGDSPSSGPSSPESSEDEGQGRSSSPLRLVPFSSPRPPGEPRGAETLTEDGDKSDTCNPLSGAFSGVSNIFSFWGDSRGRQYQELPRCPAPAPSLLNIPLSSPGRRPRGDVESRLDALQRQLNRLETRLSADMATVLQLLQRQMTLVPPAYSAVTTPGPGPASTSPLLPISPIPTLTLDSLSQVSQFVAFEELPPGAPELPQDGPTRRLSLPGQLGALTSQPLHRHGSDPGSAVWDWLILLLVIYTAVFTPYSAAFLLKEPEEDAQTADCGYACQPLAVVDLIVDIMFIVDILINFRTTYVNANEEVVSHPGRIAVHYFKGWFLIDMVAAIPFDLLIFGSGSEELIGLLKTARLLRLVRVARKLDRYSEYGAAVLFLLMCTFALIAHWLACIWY
# Protocol: (§1) Experimental title: using vitro pachynsis myocardial cells of Guinea pig, the activity is determined by the whole cell membrane Patch clamp technology.
# (§2) experimental mechanism: the Guinea pig myocardial cells are separated with enzymolysis, and the rapid activation component and the slowly activation component of the delayed commutating current in the cardiac muscle cells are recorded by whole cell membrane Patch clamp. Each compound is added to the perfuse liquid for measuring current after dissolved at least 10 min. The collected data is analyzed in pulse-fit, the IC50 value for IKr and IKs of each compound is calculated.
# (§3) animals: Guinea pigs, male, weight 300-400 g.
# (§4) solution: calcium free Tyrode's solution
# (§5) pole inner solution (mmol/L): KCl 140, MgCl2 1.0, K2-ATP 4.0, EGTA 10, HEPES 5.0, pH=7.2
# (§6) Experimental apparatus: Patch clamp magnifier (EPC-10, Germany), inverted microscope (TE-2000U, Nikon, Japan), microelectrode puller (PIP5, Germany), micro-manipulator (PCS-5000, Burleigh, USA).
# (§7) Then, the hearts are taken off, their ventricle are cut to smash and incubated in fresh enzyme solution at 37° C., the solution is gently stirred for 5-10 min, pouring off the supernatant fluid, diluted with Tyrode's solution containing CaCl2 1 mmol/L, that is for the first cell stored liquor; with the same operation to obtain the second and the third cell storages. […] The cells are laid for 2 h before use.
# (§8) the cell liquor is put into the cell pool, after the cells adhering to the wall, they are perfused with outer liquor of the cells at the rate of 2 ml/min, cells that having calcium resistance and clear transverse striations are to be selected, the poles are moved to the cell surface by tridimensional manipulator. The high resistance block are formed between the pole top and the cell surface by under pressure, and more over using reduced pressure to broking cell membrane, the pole inner liquor can be connected to the cell inner liquor so as to form the whole cell state. After the compensation to the capacitance and series impedance compensation the voltage tongs are recorded. The signal is led by Ag/AgCl pole and magnified by the Patch clamp magnifier, the computer dispenses presetting stimulate pulse by procedure and add to cells, and the electrical signal generated from cells is translated by transducer, and stored in computer. All of the stimulate signal control, electric current, data sampling and analyses are carried out by pulse V8.60. Azimilide is used as positive drugs in the research. Each test compound is dissolved in anhydrous ethanol, diluted to the same concentration by water, and added to outer cell liquor, the top concentration of ethanol is 0.1%.
# (§9) Stimulate parameter: the record of IKr and IKS: the back value of the either current is recorded. Using extra-cellular fluid containing 0.1 mmol/L CdCl2 for perfusion, sustaining the voltage at −50 mV, depolarized to 60 mV, keeping for 500 ms, and sustaining the voltage at −50 mV, keeping for 1000 ms, recording IKr; and then binding the voltage at −50 mV for 1000 ms, recording IKs.
# [2] = molecular target: T2, slowly delayed rectifier potassium channel current (IKs) (Cavia porcellus, UniProt O70344); test: whole cell patch clamp on isolated Guinea pig myocardial cells, IKs; type: cell-based; settings: Guinea pig ventricular myocytes, current recorded 10 min after administration, 25-30° C.
# T2 construct: the Guinea pig myocardial cells are separated with enzymolysis; endogenous in cells; host or cells: freshly isolated guinea pig ventricular myocytes
# T2 sequence (O70344 1-671): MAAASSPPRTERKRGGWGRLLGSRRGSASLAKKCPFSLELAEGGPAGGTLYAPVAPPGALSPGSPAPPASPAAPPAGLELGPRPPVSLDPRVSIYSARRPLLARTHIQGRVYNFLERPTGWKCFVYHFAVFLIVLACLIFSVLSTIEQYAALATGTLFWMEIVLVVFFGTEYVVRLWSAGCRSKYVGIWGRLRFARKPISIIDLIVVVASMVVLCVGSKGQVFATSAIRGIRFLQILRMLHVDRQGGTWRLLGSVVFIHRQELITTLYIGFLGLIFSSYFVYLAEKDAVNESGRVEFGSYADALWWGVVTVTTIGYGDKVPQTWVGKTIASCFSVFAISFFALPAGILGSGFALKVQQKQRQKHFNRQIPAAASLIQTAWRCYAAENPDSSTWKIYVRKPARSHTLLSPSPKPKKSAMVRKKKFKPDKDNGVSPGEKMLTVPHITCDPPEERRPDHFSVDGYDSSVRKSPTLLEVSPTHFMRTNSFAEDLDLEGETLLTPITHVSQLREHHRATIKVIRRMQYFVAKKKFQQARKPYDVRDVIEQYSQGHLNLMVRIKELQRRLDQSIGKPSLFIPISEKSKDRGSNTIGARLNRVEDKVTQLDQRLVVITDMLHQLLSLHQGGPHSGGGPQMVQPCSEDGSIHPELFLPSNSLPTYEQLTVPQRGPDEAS
# T2 sequence (P41686 1-245 partner): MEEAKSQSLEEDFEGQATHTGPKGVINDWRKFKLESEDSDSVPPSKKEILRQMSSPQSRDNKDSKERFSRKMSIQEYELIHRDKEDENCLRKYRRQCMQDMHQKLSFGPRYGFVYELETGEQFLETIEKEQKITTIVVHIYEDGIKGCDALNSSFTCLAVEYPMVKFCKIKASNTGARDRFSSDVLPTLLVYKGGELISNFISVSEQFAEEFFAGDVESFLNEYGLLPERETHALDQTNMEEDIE
# Protocol: as §1, §2, §3, §4, §5, §6, §7, §8, §9
IC50 [2] [nM],melting point [°C],SMILES,IC50 [1] [nM]
304,,"Cc1ccc2c(c1)/C(=N/N1CC(=O)N(CCCN3CCN(C)CC3)C1=O)CCO2 [Ia example 9, 1-[4-(2,3-dihydro-6-methyl)benzopyran]imino-3-[3-(4-methylpiperazine-1-)propyl]-2,4-imidazole dione difumarate]",619
1040,,"CCOc1ccc2c(c1)/C(=N/N1CC(=O)N(CCCCN3CCCCC3)C1=O)CCO2 [Ib example 5, 1-[4-(2,3-dihydro-6-ethoxy)benzopyran]imino-3-(4-piperidine) butyl-2,4-imidazole dione]",450
,203 to 205,CN1CCN(CCCCN2C(=O)CN(/N=C3\CCOc4ccc(O)cc43)C2=O)CC1.O=C(O)/C=C/C(=O)O,
9.5,,"CCCOc1ccc2c(c1)/C(=N/N1CC(=O)N(CCCN3CCN(C)CC3)C1=O)CCO2 [Ib example 10, 1-[4-(2,3-dihydro-6-propoxy-)benzopyran]imino-3-[3-(4-methylpiperazine-1-yl)propyl]-2,4-imidazole dione difumarate]",106
330,192 to 194,"CN1CCN(CCCCN2C(=O)CN(/N=C3\CCOc4ccc(C(N)=O)cc43)C2=O)CC1.O=C(O)/C=C/C(=O)O [Ia example 4, 1-[4-(2,3-dihydro-6-carbamoyl)benzopyran]imino-3-[4-(methyl-1-piperazine)butyl]-2,4-imidazole dione difumarate]",450
18900,,"Cc1ccc2c(c1)/C(=N/N1CC(=O)N(CCCCN3CCCCC3)C1=O)CCO2 [Ia example 7, 1-[4-(2,3-dihydro-6-methyl)benzopyran]imino-3-(4-piperidine) butyl-2,4-imidazole dione]",22000
73,230 to 232,"CN1CCN(CCCCN2C(=O)CN(/N=C3\CCOc4ccc(Cl)cc43)C2=O)CC1.O=C(O)/C=C/C(=O)O [Ia example 2, 1-[4-(2,3-dihydro-6-chloro)benzopyran]imino-3-[4-(methyl-1-piperazine)butyl]-2,4-imidazole dione difumarate]",4700
61000,,"O=C1CN(/N=C2\CCOc3ccc(Cl)cc32)C(=O)N1CCCCN1CCCCC1 [Ia example 6, 1-[4-(2,3-dihydro-6-chloro)benzopyran]imino-3-(4-piperidine) butyl-2,4-imidazole dione]",6.2
3.2,,"CCCOc1ccc2c(c1)/C(=N/N1CC(=O)N(CCCCN3CCCCC3)C1=O)CCO2 [Ib example 6, 1-[4-(2,3-dihydro-6-propoxy-)benzopyran]imino-3-(4-piperidine) butyl-2,4-imidazole dione]",400
22000,,"COc1ccc2c(c1)/C(=N/N1CC(=O)N(CCCCN3CCCCC3)C1=O)CCO2 [Ia example 5, 1-[4-(2,3-dihydro-6-methoxy)benzopyran]imino-3-(4-piperidine) butyl-2,4-imidazole dione]",7470
,231 to 233,Cc1ccc2c(c1)/C(=N/N1CC(=O)N(CCCCN3CCN(C)CC3)C1=O)CCO2.O=C(O)/C=C/C(=O)O,
26.9,,"CCOc1ccc2c(c1)/C(=N/N1CC(=O)N(CCCN3CCN(C)CC3)C1=O)CCO2 [Ib example 9, 1-[4-(2,3-dihydro-6-ethoxy)benzopyran]imino-3-[3-(4-methylpiperazine-1-yl)propyl]-2,4-imidazole dione difumarate]",4340
1.9,,"COc1ccc2c(c1)/C(=N/N1CC(=O)N(CCCN3CCN(C)CC3)C1=O)CCO2 [Ia example 8, 1-[4-(2,3-dihydro-6-methoxy)benzopyran]imino-3-[3-(4-methylpiperazine-1-yl)propyl]-2,4-imidazole dione difumarate]",540
,225 to 227,CCOc1ccc2c(c1)/C(=N/N1CC(=O)N(CCCCN3CCN(C)CC3)C1=O)CCO2.O=C(O)/C=C/C(=O)O,

SMILES,IC50 [2] [nM],melting point [°C],IC50 [1] [nM]
"CCCCOc1ccc2c(c1)/C(=N/N1CC(=O)N(CCCCN3CCCCC3)C1=O)CCO2 [Ib example 7, 1-[4-(2,3-dihydro-6-butoxy)benzopyran]imino-3-(4-piperidine) butyl-2,4-imidazole dione]",1030,,17.4
"CN1CCN(CCCN2C(=O)CN(N=C3CCOc4ccc(Cl)cc43)C2=O)CC1 [Ia example 10, 1-[4-(2,3-dihydro-6-chlorine)benzopyran]imino-3-[3-(4-methylpiperazine-1-yl)propyl]-2,4-imidazole dione difumarate]",5.8,,3870
